Assay results from patent publication US8912227B1, “Bicyclic pyrrole derivatives useful as agonists of GPR120” (Janssen Pharmaceutica NV, priority 2014, dated 2014).

Assays:
[1] = molecular target: T1, short form of the GPR120 receptor (Homo sapiens, UniProt Q5NUL3); assay: Human GPR120 DiscoveRx PathHunter β-Arrestin assay, Procedure β-arrestin B; assay type: cell-based; conditions: PathHunter CHO-K1 GPR120S β-Arrestin cell line, 5000 cells/well
T1 construct: host or cells: PathHunter CHO-K1 GPR120S β-Arrestin Cell Line
T1 sequence (P32121 whole entry partner, one chain of several): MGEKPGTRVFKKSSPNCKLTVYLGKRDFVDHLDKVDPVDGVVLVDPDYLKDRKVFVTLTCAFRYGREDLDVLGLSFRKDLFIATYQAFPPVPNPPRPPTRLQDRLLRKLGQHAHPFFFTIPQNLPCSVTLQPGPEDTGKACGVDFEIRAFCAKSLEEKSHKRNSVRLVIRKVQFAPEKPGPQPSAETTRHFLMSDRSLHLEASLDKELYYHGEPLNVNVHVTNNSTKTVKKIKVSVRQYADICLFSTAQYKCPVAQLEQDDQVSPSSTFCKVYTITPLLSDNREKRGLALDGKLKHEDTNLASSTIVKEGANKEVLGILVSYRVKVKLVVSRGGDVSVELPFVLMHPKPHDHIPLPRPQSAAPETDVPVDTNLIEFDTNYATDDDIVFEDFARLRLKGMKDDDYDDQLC
Description: The binding of an agonist (medium/long chain fatty acids or small molecule agonists) to the G-protein-coupled receptor GPR120 activates phospholipase C, leading to release of intracellular Ca^+2 through the generation of inositol 1,4,5-trisphosphate (InsP3 or IP3). GPR120 activation can also trigger intracellular signaling via recruitment of β-Arrestin. In the present method, agonist-induced activation of the human GPR120 receptor is monitored through the use of PathHunter CHO-K1 GPR120 β-Arrestin Cell Line engineered by DiscoveRx, as detailed below. The cell lines are designed to co-express both the ProLink/Enzyme Donor (PK)-tagged GPCR and the Enzyme […] (EA)-tagged Beta-Arrestin fusion proteins. Upon GPR120 receptor stimulation/activation, the EA-tagged β-Arrestin portion is translocated to the tagged receptor, where the two enzyme fragments are brought within close proximity. Under these conditions, these fragments can interact and form an active Beta-gal enzyme complex through Enzyme Fragment Complementation (EFC). This active Beta-gal complex can enzymatically hydrolyse the substrate to produce a detectable light signal; therefore, activation as a function of agonist concentration can be expressed as an EC50 value to determine relative compound activities. This in vitro assay therefore serves to assess compound agonist activity of the GPR120.
In Procedure β-arrestin B the cells used were PathHunter CHO-K1 GPR120S β-Arrestin Cell Line, expressing the short form of the GPR120 receptor (Accession #NM_181745), with 5000 cells/well.
The selected CHO-K1 GPR120 β-Arrestin cells were cultured in Ham's F12 media supplemented with 10% fetal bovine serum (FBS), 1% Glutamine, 1×p/s, 800 μg/ml G418 and 300 μg/ml Hygromycin B (for selection). Cell stocks were maintained and grown in a sub-confluent state using standard cell culture procedures. The day before the experiment, the cells were harvested with non-enzymatic cell dissociation buffer and re-suspended in complete growth media at the desired concentration. A Corning 384-plate was then seeded with the proper number of cells in a volume of 25 μL, per well. The seeded plates were incubated overnight at 37° C.
On the day of the experiment, the Assay Buffer containing (a) HBSS with Ca^++ and Mg^++, (b) 20 mM HEPES, and (c) 0.1% BSA stabilizer (pH 7.4) was prepared. The growth medium was gently removed from the cell plates and 20 μL of Assay Buffer added to each well. The plate was then incubated at 37° C. for 60 mins. Test compounds were serially diluted in Assay Buffer to desired concentrations (more particularly, to one or more of the following μM concentrations: 25 μM, 12.5 μM, 6.25 μM, 3.125 μM, 1.562 μM, 0.781 μM, 0.391 μM, 0.195 μM, 0.098 μM, 0.049 μM, 0.024 μM, 0.012 μM). Five μl of compound dilution was then added to each well and the plate incubated at 37° C. for 90 mins. The detection reagents were prepared according to the manufacture's instruction. Twelve μL of the detection reagents were added to each well and the plate incubated at room temperature for 60 mins.
The plates were read on an EnVision instrument, using Protocol name: Luminescence, Plate type: 384 Costar, Measurement height: 3 mm, Measurement time: 1 s, Aperture: 384 Plate aperture. The % activity relative to the positive control was calculated using the following equation:
The % Activity values were plotted versus the concentration of test compound and fitted to a sigmoidal dose-response curve with a Hill slope=1 (fixed value) using nonlinear regression with GraphPad Prism 5.0 to calculate the EC50 values. The Fitting Equation was: Y=Bottom+(Top−Bottom)/(1+10^((LogEC50−X)*HillSlope)), where X is the log of the concentration and Y is the response.

[2] = molecular target: T2, Human GPR120 short form (Homo sapiens, UniProt Q5NUL3); assay: Human GPR120 calcium flux assay, Procedure Calcium B; assay type: cell-based; conditions: HEK-293 cells expressing human GPR120 short form, 4200 cells/well, FLIPR
T2 construct: expressed in transfected cells
T2 sequence (Q5NUL3 1-361): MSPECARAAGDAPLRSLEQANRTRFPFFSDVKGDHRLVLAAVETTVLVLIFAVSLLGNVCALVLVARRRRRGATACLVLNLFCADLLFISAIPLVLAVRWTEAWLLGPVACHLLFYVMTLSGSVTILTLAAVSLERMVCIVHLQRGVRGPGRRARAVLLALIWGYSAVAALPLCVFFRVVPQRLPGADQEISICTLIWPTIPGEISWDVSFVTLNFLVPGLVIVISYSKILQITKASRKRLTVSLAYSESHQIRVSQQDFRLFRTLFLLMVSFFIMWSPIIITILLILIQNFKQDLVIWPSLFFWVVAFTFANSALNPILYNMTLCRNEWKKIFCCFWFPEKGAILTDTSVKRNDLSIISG

SMILES	EC50 [1] [nM]	EC50 [2] [nM]
Cc1ccc(-n2ccc(C(F)(F)F)c2COc2c(F)cc(CCC(=O)O)cc2F)c(F)c1 [Compound 72, 3-(3,5-Difluoro-4-{[1-(2-fluoro-4-methylphenyl)-3-(trifluoromethyl)-1H-pyrrol-2-yl]methoxy}phenyl)propanoic acid]	624	118
O=C(O)CCc1cc(F)c(OCc2c(C(F)(F)F)ccn2-c2ccc(F)c(F)c2)c(F)c1 [Compound 76, 3-(4-{[1-(3,4-Difluorophenyl)-3-(trifluoromethyl)-1H-pyrrol-2-yl]methoxy}-3,5-difluorophenyl)propanoic acid]	1120	175
O=C(O)CCc1cc(F)c(OCc2c(C(F)(F)F)ccn2-c2ccc(F)cc2F)c(F)c1 [Compound 75, 3-(4-{[1-(2,4-Difluorophenyl)-3-(trifluoromethyl)-1H-pyrrol-2-yl]methoxy}-3,5-difluorophenyl)propanoic acid]	577	156
Cc1ccc(-n2ccc(C(F)(F)F)c2COc2ccc(CCC(=O)O)c(C)c2C)cc1F [Compound 66, 3-(4-{[1-(3-Fluoro-4-methylphenyl)-3-(trifluoromethyl)-1H-pyrrol-2-yl]methoxy}-2,3-dimethylphenyl)propanoic acid]	412	315
Cc1ccc(-n2ccc(C(F)(F)F)c2COc2c(F)cc(CC(C)C(=O)O)cc2F)cc1F (centres unmarked) [Compound 64, 3-(3,5-difluoro-4-[[1-(3-fluoro-4-methylphenyl)-3-(trifluoromethyl)-1H-pyrrol-2-yl]methoxy]phenyl)-2-methylpropanoic acid]	264	212

Further compounds by falling EC50 [1], results first:

EC50 [1] [nM]	EC50 [2] [nM]	SMILES
749	210	Cc1ccc(-n2ccc(C(F)(F)F)c2COc2ccc(CCC(=O)O)c(C)c2C)c(F)c1 [Compound 73, 3-(4-{[1-(2-Fluoro-4-methylphenyl)-3-(trifluoromethyl)-1H-pyrrol-2-yl]methoxy}-2,3-dimethylphenyl)propanoic acid]
549	186	Cc1ccc(-n2ccc(C(F)(F)F)c2COc2c(F)cc(CC(C)C(=O)O)cc2F)cc1 (centres unmarked) [Compound 60, 3-(3,5-difluoro-4-[[1-(4-methylphenyl)-3-(trifluoromethyl)-1H-pyrrol-2-yl]methoxy]phenyl)-2-methylpropanoic acid]
